# Results from patent US20210315840A1, “SOLID ORAL DOSAGE FORMS OF KETAMINE DERIVATIVES” (priority 2017, published 2021).
# Legend:
# [1] = system: cryopreserved hepatocytes; experiment: Hepatocyte stability assay, rat; conditions: 3 μM
# Description: (§3) Test compound (3 μM) was incubated with cryopreserved hepatocytes in suspension. Samples are removed at 6 time points over the course of 120 minutes and analysed by LC-MS/MS.
# [2] = Oral bioavailability in vivo after oral gavage; conditions: mice
# CYP3A4 [3] = target: T1, CYP3A4 (Homo sapiens, UniProt P08684); experiment: CYP inhibition assay CYP3A4, substrate midazolam; type: in vitro ADME; conditions: for % Inhibition: Substrate = midazolam
# Text: (§1) Cytochrome P450s (CYPs) are a family of enzymes that play a primary role in the metabolism of a wide variety of drugs. 2R,6R-hydroxynorketamine was investigated for its potential to inhibit the action of 7 key CYP enzymes using an inhibition assay measuring reduction in the formation of metabolites compared to control.
# MAO-A = MAO-A (Homo sapiens, UniProt P21397); experiment: Binding assay MAO-A
# Text: (§2) 2R,6R-hydroxynorketamine was investigated for binding to monoamine oxidases A and B, monoamine transporters, as well as a variety of 5HT receptors.
# CYP2B6 = target: T2, CYP2B6 (Homo sapiens, UniProt P20813); experiment: CYP inhibition assay CYP2B6; type: in vitro ADME
# T2 sequence (P20813 1-491): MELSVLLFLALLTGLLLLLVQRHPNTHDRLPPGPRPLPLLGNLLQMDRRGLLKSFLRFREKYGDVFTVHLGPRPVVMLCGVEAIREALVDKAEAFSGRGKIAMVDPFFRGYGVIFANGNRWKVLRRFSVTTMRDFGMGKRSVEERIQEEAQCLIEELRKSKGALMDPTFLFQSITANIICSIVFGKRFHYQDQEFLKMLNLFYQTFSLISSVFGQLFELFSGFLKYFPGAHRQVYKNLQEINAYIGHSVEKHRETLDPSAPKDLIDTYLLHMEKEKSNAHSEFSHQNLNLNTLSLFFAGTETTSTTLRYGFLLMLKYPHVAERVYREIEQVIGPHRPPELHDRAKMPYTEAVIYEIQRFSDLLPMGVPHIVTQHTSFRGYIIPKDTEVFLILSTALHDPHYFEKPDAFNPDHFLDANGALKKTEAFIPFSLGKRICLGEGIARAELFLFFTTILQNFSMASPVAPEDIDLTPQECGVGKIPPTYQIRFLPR
# Text: as §1
# CYP1A2 = target: T3, CYP1A2 (Homo sapiens, UniProt P05177); experiment: CYP inhibition assay CYP1A2; type: in vitro ADME
# T3 sequence (P05177 1-516): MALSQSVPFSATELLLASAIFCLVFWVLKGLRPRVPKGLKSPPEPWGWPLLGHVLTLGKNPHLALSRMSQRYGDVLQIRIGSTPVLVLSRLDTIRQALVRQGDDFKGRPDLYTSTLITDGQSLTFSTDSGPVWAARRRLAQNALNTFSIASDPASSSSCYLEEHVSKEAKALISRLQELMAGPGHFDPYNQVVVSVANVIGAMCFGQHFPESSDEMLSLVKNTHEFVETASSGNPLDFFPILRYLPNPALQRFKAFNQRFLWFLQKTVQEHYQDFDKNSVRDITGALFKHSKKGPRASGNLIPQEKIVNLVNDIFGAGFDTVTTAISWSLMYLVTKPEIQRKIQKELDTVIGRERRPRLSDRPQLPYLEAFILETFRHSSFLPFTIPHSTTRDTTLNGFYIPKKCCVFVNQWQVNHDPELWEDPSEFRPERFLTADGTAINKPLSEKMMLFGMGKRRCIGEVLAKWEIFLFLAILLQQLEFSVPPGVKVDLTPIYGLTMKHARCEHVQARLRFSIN
# Text: as §1
# [4] = Turbidimetric aqueous solubility; type: physicochemical
# UGT2B7 = UGT2B7 (Homo sapiens, UniProt P16662); experiment: UGT inhibition assay UGT2B7; type: in vitro ADME
# [5] = system: cryopreserved hepatocytes; experiment: Hepatocyte stability assay, human
# Description: as §3
# [6] = system: cryopreserved hepatocytes; experiment: Hepatocyte stability assay, dog; conditions: 3 μM
# Description: as §3
# 5-HT transporter = 5-HT transporter (Homo sapiens, UniProt P31645); experiment: Binding assay 5-HT transporter
# Text: as §2
# [7] = target: norepinephrine transporter (Homo sapiens, UniProt P23975); experiment: Binding assay norepinephrine transporter
# Text: as §2
# Metabolite profiling = type: in vitro ADME
# CYP2C19 = CYP2C19 (Homo sapiens, UniProt P33261); experiment: CYP inhibition assay CYP2C19; type: in vitro ADME
# Text: as §1
# CYP3A4 [8] = target: T1, CYP3A4; experiment: CYP inhibition assay CYP3A4, substrate testosterone; type: in vitro ADME; conditions: for % Inhibition: Substrate = testosterone
# Text: as §1
# T1 sequence (P08684 whole entry): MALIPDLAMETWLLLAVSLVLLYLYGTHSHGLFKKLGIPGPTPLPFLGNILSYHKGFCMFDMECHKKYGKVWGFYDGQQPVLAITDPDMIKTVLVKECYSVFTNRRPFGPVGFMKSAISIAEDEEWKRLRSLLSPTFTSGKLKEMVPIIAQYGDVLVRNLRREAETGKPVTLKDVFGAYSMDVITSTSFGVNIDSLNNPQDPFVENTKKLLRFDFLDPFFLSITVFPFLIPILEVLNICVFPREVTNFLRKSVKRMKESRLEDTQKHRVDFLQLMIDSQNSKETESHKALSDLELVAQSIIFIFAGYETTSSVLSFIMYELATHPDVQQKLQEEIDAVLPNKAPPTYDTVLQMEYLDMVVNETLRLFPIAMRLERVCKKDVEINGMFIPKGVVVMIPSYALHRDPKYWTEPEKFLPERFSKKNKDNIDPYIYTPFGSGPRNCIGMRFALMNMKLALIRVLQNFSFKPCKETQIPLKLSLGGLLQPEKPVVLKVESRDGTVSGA
# CYP2C19, sequence (P33261 whole entry): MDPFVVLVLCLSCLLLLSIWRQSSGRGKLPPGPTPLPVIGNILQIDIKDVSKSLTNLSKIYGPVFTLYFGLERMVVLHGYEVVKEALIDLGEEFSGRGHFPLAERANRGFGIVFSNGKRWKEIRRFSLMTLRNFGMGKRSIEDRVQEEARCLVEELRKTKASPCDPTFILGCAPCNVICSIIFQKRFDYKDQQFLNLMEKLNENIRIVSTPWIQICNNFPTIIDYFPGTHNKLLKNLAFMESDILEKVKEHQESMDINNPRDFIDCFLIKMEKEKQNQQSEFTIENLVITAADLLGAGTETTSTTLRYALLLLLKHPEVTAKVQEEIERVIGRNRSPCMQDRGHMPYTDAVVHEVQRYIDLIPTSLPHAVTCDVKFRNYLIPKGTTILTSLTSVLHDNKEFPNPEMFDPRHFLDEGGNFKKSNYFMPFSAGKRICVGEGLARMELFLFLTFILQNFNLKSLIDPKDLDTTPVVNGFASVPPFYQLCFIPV
# norepinephrine transporter, sequence (P23975 whole entry, species assumed): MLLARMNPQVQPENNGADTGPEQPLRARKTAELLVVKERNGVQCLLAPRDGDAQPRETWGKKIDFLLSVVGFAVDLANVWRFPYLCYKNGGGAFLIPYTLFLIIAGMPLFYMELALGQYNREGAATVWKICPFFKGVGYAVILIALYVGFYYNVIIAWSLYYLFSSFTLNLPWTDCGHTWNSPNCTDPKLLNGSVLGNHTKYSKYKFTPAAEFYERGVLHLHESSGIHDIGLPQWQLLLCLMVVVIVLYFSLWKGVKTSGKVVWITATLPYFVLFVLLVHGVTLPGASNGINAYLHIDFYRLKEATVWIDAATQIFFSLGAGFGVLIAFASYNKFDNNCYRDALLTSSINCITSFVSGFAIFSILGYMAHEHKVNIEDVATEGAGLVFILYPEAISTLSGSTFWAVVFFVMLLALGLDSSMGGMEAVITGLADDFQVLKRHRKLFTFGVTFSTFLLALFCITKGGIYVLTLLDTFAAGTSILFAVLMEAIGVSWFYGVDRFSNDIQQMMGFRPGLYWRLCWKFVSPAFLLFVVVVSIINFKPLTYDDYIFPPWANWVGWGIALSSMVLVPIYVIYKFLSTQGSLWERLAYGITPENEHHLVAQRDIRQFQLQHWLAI
# 5-HT transporter, sequence (P31645 whole entry, species assumed): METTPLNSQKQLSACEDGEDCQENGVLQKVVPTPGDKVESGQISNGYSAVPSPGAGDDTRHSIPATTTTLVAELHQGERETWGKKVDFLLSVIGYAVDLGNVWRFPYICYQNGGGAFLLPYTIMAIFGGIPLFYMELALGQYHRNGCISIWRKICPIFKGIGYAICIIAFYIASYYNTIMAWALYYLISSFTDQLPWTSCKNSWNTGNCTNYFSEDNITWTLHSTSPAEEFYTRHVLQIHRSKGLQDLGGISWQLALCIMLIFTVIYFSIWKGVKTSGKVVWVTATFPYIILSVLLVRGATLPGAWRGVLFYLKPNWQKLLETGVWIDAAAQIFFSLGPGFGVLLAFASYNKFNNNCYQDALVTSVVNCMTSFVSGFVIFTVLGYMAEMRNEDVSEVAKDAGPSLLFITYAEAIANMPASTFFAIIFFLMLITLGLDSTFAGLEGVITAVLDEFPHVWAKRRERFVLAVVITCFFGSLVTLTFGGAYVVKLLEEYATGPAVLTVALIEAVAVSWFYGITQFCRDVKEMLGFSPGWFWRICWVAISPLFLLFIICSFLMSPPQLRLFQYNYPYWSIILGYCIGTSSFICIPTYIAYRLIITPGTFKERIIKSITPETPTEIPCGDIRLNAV
# MAO-A, sequence (P21397 whole entry, species assumed): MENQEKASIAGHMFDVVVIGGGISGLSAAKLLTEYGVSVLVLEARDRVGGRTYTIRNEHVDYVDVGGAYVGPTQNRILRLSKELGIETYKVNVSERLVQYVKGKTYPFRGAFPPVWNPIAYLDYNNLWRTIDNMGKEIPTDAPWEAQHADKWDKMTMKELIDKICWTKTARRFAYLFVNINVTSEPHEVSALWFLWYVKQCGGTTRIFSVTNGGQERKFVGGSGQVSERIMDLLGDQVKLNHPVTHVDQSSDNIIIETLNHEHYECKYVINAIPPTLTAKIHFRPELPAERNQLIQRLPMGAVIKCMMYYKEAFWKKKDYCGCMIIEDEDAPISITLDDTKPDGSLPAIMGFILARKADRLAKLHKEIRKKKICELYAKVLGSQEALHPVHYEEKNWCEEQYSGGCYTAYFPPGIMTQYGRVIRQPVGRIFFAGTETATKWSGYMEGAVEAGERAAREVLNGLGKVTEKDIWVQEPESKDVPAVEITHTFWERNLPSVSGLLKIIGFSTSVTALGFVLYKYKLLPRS
# UGT2B7, sequence (P16662 24-529): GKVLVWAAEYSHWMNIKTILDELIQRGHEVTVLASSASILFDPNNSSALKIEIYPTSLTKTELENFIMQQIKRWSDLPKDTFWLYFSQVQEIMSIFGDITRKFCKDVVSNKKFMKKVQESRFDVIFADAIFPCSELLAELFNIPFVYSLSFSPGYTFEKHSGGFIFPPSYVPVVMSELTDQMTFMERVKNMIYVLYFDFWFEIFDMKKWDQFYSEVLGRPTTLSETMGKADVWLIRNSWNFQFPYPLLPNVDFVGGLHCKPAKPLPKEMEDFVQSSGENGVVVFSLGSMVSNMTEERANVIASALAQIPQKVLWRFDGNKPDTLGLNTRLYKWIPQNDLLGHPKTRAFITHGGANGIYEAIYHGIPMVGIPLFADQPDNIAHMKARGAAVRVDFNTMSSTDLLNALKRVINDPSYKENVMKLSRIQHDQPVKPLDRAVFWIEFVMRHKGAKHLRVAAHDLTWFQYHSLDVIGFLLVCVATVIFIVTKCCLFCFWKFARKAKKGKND
smiles,measurement,setting,value
"N[C@@]1(c2ccccc2Cl)CCC[C@@H](O)C1=O [2R,6R-hydroxynorketamine, 2R,6R-2-(2-Chlorophenyl)-2-(amino)-6-hydroxycyclohexanone]",CLint,[1],55.2 μL/min/10^6 cells
same,t1/2,[1],0.418 h
same,oral bioavailability,[2]; high oral dose (>30 mg/kg),good
same,oral bioavailability,[2]; low oral dose,poor
same,% Inhibition,CYP3A4 [3]; 0.4 μM,11.5%
same,% Inhibition,CYP3A4 [3]; 1 μM,8.44%
same,% Inhibition,CYP3A4 [3]; 4 μM,15.7%
same,% Inhibition,CYP3A4 [3]; 10 μM,25.7%
same,% Inhibition,CYP3A4 [3]; 40 μM,43.7%
same,% Inhibition,CYP3A4 [3]; 100 μM,57.5%
same,IC50,CYP3A4 [3]; substrate midazolam,69 µM
same,% Inhibition of Control Specific Binding,MAO-A,−5%
same,% of Control Specific Binding,MAO-A,97.7%
same,inhibition of CYP2B6 (in words),CYP2B6,did not inhibit
same,% Inhibition,CYP2B6; 0.4 μM,6.03%
same,% Inhibition,CYP2B6; 1 μM,10.1%
same,% Inhibition,CYP2B6; 4 μM,10.6%
same,% Inhibition,CYP2B6; 10 μM,14.4%
same,% Inhibition,CYP2B6; 40 μM,14.8%
same,% Inhibition,CYP2B6; 100 μM,16.7%
same,IC50,CYP1A2,~100 µM
same,% Inhibition,CYP1A2; 0.4 μM,7.55%
same,% Inhibition,CYP1A2; 1 μM,8.80%
same,% Inhibition,CYP1A2; 4 μM,11.7%
same,% Inhibition,CYP1A2; 10 μM,19.3%
same,% Inhibition,CYP1A2; 40 μM,24.8%
same,% Inhibition,CYP1A2; 100 μM,48.6%
same,solubility (in words),[4],high
same,inhibition of UGT2B7 (in words),UGT2B7,does not inhibit
same,hepatic clearance in humans (in words),[5],does not undergo hepatic clearance
same,CLint,[6],4.72 μL/min/10^6 cells
same,t1/2,[6],4.9 h
same,% Inhibition of Control Specific Binding,5-HT transporter,2%
same,% of Control Specific Binding,5-HT transporter,102.0%
same,% Inhibition of Control Specific Binding,[7],−16%
same,% of Control Specific Binding,[7],117.6%
same,metabolic route (in words),Metabolite profiling,"does not undergo phase I metabolism by CYP enzymes, but is glucuronidated"
same,inhibition of CYP2C19 (in words),CYP2C19,did not inhibit
same,% Inhibition,CYP2C19; 0.4 μM,−2.01%
same,% Inhibition,CYP2C19; 1 μM,−1.66%
same,% Inhibition,CYP2C19; 4 μM,1.85%
same,% Inhibition,CYP2C19; 10 μM,6.69%
same,% Inhibition,CYP2C19; 40 μM,8.25%
same,% Inhibition,CYP2C19; 100 μM,16.1%
same,% Inhibition,CYP3A4 [8]; 0.4 μM,1.62%
same,% Inhibition,CYP3A4 [8]; 1 μM,−0.509%
same,% Inhibition,CYP3A4 [8]; 4 μM,7.04%
same,% Inhibition,CYP3A4 [8]; 10 μM,12.4%
same,% Inhibition,CYP3A4 [8]; 40 μM,35.2%
same,% Inhibition,CYP3A4 [8]; 100 μM,53.4%
same,IC50,CYP3A4 [8]; substrate testosterone,81 µM
